In patent US20050020542A1, “Method of modulating sodium ion absorption in epithelial cells” (priority 2001, published 2005):
Entries after “also recorded” stand apart in the source; their conditions may differ. Like-named read-outs stand apart in the source and are kept apart here.

Target: T1, epithelial sodium channel (ENaC) (Homo sapiens, UniProt P37088+P51168+P51170)
T1 construct: Nasal Polyps were surgically obtained from a CF patient; endogenous in cells; host or cells: primary cystic fibrosis human nasal epithelial (CFHNE) cells from nasal polyps of a CF patient, grown at air-liquid interface
T1 sequence (P37088 1-669): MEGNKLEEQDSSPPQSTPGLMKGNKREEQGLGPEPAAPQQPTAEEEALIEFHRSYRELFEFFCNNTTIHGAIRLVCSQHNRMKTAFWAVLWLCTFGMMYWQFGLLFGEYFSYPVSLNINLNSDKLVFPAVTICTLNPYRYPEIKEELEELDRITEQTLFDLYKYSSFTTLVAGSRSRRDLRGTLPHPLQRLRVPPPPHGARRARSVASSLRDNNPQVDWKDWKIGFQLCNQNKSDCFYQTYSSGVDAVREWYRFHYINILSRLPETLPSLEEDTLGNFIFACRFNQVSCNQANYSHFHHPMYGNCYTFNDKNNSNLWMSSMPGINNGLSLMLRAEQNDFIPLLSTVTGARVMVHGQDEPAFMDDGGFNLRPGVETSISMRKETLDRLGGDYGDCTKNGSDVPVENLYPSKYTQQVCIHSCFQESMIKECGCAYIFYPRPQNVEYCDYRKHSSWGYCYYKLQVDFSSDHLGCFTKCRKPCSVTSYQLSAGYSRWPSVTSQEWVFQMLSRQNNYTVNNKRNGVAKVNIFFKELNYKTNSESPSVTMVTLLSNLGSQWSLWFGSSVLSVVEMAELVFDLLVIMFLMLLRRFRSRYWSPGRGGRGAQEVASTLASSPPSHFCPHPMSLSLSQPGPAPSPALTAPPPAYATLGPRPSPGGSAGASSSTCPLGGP
T1 sequence (P51168 1-640): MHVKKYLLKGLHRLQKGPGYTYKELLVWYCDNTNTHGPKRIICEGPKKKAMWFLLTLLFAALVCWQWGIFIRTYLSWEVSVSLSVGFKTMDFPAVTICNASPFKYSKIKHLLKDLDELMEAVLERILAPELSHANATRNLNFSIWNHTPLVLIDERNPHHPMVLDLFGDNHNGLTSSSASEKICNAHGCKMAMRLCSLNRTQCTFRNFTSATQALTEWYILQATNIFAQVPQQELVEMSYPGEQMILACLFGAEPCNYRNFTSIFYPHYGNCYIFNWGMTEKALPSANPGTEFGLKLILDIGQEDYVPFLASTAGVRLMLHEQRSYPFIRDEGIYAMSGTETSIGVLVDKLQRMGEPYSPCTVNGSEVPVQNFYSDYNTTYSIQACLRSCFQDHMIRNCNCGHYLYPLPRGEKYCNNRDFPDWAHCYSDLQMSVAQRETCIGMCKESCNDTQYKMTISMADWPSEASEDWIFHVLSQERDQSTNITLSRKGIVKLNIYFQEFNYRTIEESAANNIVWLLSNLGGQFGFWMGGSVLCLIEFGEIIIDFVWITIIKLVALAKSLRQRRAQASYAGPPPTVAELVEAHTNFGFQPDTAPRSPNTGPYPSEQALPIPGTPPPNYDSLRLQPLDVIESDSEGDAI
T1 sequence (P51170 1-649): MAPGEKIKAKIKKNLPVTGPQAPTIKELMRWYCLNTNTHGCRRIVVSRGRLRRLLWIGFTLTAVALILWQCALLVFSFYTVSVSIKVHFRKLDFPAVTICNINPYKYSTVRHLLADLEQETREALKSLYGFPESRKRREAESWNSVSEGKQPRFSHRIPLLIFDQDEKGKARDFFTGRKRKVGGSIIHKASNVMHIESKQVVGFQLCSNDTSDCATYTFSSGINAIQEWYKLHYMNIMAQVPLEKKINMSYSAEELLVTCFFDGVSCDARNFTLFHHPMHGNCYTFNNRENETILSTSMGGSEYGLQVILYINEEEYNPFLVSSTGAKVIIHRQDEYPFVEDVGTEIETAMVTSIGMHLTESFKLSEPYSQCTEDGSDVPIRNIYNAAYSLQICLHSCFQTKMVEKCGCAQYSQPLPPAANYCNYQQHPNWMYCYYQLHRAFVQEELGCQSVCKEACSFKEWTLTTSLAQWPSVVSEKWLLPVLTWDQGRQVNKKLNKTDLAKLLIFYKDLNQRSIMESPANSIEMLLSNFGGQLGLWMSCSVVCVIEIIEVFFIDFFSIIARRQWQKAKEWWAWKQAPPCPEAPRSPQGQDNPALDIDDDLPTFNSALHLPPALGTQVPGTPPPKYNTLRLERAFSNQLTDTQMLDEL
Test: Cystic fibrosis human nasal epithelial (CFHNE) cell Ussing chamber assay, short-circuit current (Isc)
Type: cell-based
Experimental: Sodium uptake inhibiting and enhancing inositol polyphosphate compounds are determined by the cystic fibrosis human nasal epithelial (CFHNE) cell assay, as described in detail in Examples 1 and 2, i.e., by mounting monolayers of human CF nasal epithelial cells in Ussing chambers, and then monitoring short-circuit current (Isc) and resistance after contact with a test inositol polyphosphate compound.
Elevated basal Isc measured in monolayer cultures in Ussing Chambers is a prominent characteristic of cultures of CF human nasal airway epithelia that distinguishes it from normal tissue. Although basal Isc is largely driven by sodium channel activity (ENaC) it has been closely associated with both CFTR and Ca^2+ activated Cl^− channels. (Devor and Pilewski, 1999; Inglis et al., 1999; Mall et al., 1999; Ramminger et al., 1999; Wang and Chan, 2000).
CF Human Nasal Epithelial (CFHNE) Cell Isolation and Proliferation: Nasal Polyps were surgically obtained from a CF patient at Children's Hospital (Seattle, Wash.), transported, on ice in a sterile container containing a 1:1 mixture of Dulbecco's modification of minimum essential medium Eagle and Ham's F-12 nutrient medium (DMEM/F-12)(Irvine Scientific, Santa Ana, Calif.) supplemented with 100 U/ml penicillin, 0.1 mg/ml streptomycin, 10 mM HEPES, and 2 mM L-glutamine. The tissue samples were aseptically removed from the transport medium and washed (repeated 5×) by suspending in 40 ml of Joklik's modification of minimum essential medium Eagle (JMEM) at 4° C., and centrifuging at 500 RPM. The supernatant was aspirated and discarded. The tissue was then transferred to JMEM containing 200 U/ml penicillin, 0.2 mg/ml streptomycin, 0.1 mg/ml gentamycin sulfate (Clonetics, San Diego, Calif.), and 0.1 μg/ml amphotericin-B (Clonetics), and 0.1% Protease (Sigma), washed an additional 2×, suspended in 15 ml in a 10 cm tissue culture dish, and incubated at 4° C. for 24 hours. The tissue samples were then gently triturated, the connective tissue aseptically removed, and the remaining cell suspension centrifuged at 1000 RPM for 5 min. The supernatant was aspirated and the pellet was resuspended in 10 ml JMEM with 0.025% trypsin-EDTA and allowed to incubate for 5 min. After 5 min., 10% Fetal Bovine Serum (FBS) was added to deactivate the trypsin, and the cell suspension was centrifuged at 1000 RPM. The supernatant was aspirated and the cell pellet was resuspended in a proliferation media consisting of Keratinocyte-Serurm Free Medium (KSFM)(Gibco-BRL, Grand Island, N.Y.) containing 5 ng/ml EGF (Gibco), 50 μg/ml BPE (Gibco), 100 U/ml penicillin, 0.1 mg/ml streptomycin, and 2 mM L-glutamine. The cell suspension was transferred to 2, 10 cm tissue culture dishes coated with 1 μg/cm^2 Vitrogen (Becton-Dickinson, Bedford, Mass.), incubated at 37° C. in a humidified atmosphere of 5% CO2 and 95% air. The cells were allowed to grow for 6 days (70-80% confluence) with the media being replaced with fresh media every other day. The cells were then trypsinized using 0.025% trypsin-EDTA for 5 min. The cell suspension was collected, the trypsin deactivated with 10% FBS, and centrifuged at 1000 rpm for 5 min. The cells were then counted using a hemocytometer. There was a typical yield of 3×10^6 cells per dish. The supernatant was aspirated and the cells were resuspended in KSFM and plated on 1 μg/cm^2 Vitrogen at a density of 5×10^3 cells/cm^2.
CFHNE Cell Ussing Chamber Preparation: The CFHNE cells were prepared for Ussing Chamber studies using Snapwell permeable supports (0.4 μm pore size) (Corning Costar, Cambridge, Mass.) coated with 1 μg/cm^2 Vitrogen. Cells were plated at 10^5 cells/cm^2 in KSFM. […]

acute effect on Isc (2.5 μM, acute): acute inhibitory effect on Isc
persistence of acute Isc effect after 24 hrs (2.5 μM, single addition, after 24 hrs): dissipated
inhibition of Isc 48 hours after exposure (reversibility) (5 μM for 2 hours, tested 48 hours later): negligible inhibition of Isc
decrease in potency after 24 hr preincubation versus acute addition (24 hr preincubation EC50 vs acute EC50): 50-80%
inhibition of spontaneous Isc in Cl- free buffer (Cl- free buffer, FIG. 1A): not reduced
EC50 (acute addition, data not shown, read-out: EC50 on Isc following acute addition of compound): 1 to 2 µM
EC50 (applied apically 2 hrs, washed, tested 24 hrs later, CFHNE monolayers, read-out: EC50 of prolonged effect on basal amiloride-inhibitable Isc): 5 to 10 µM
Structure (SMILES): CCCCCCCCOC1C(OC(=O)CCC)C(OP(=O)(OCOC(=O)CC)OCOC(=O)CC)C(OP(=O)(OCOC(=O)CC)OCOC(=O)CC)C(OP(=O)(OCOC(=O)CC)OCOC(=O)CC)C1OP(=O)(OCOC(=O)CC)OCOC(=O)CC (stereo not drawn) [INO-E2, 2-O-butyryl-1-O-octyl-myo-inositol 3,4,5,6-tetrakisphosphate octakis (propionoxymethyl) ester]
effect of repeated exposure on basal Isc (1-2.5 μM repeatedly over 96 hours (every 24 hrs for 4 days), FIG. 3): corrective changes in basal Isc; also recorded: cumulative beneficial effect; also recorded: reverses the pathologically elevated basal Isc
acute effect on spontaneous amiloride-inhibitable Isc (acute addition, reduced chloride and chloride free buffers, FIG. 1A): inhibits spontaneous amiloride-inhibitable Isc in a dose-dependent fashion
